Measured values: PubChem BioAssay (NCI)
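Exposure lasted 48 hours, with cells grown in 96-well plates and compounds tested at five concentrations. Here, GI50 denotes the concentration required for 50% inhibition of growth. Definition used: TGI = concentration required for complete inhibition of growth.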

Experiments:
Assay in all cases: NCI anticancer screen, dose series, 48 h
[1] = system: OVCAR-5 ovarian
[2] = system: OVCAR-4 ovarian
[3] = system: MOLT-4 leukemia
[4] = system: COLO 205 colon
[5] = system: SNB-19 CNS
[6] = system: SK-MEL-2 melanoma
[7] = system: PC-3 prostate
[8] = system: SN12C renal
[9] = system: CAKI-1 renal
[10] = system: DU-145 prostate
[11] = system: MDA-MB-435
[12] = system: UACC-62 melanoma
[13] = system: SF-295 CNS
[14] = system: SF-268 CNS
[15] = system: SR leukemia
[16] = system: HOP-92 NSCLC
[17] = system: A549 NSCLC
[18] = system: HS 578T breast
[19] = system: UACC-257 melanoma
[20] = system: K-562 leukemia
[21] = system: OVCAR-3 ovarian
[22] = system: HCT-116 colon
[23] = system: A498 renal
[24] = system: KM12 colon
[25] = system: BT-549 breast
[26] = system: RPMI-8226 leukemia
[27] = system: T-47D breast
[28] = system: M14 melanoma
[29] = system: NCI/ADR-RES ovarian
[30] = system: ACHN renal
[31] = system: U251 CNS
[32] = system: MCF7 breast
[33] = system: SW-620 colon
[34] = system: MDA-MB-231 breast
[35] = system: SNB-75 CNS
[36] = system: TK-10 renal
[37] = system: HCC-2998 colon
[38] = system: NCI-H23 lung
[39] = system: EKVX NSCLC
[40] = system: LOX IMVI melanoma
[41] = system: UO-31 renal
[42] = system: SK-MEL-28 melanoma
[43] = system: CCRF-CEM leukemia
[44] = system: HCT-15 colon
[45] = system: SF-539 CNS
[46] = system: NCI-H460 lung
[47] = system: HOP-62 NSCLC
[48] = system: HL-60(TB) leukemia
[49] = system: NCI-H226 lung
[50] = system: NCI-H522 lung
[51] = system: MALME-3M melanoma
[52] = system: HT29 colon
[53] = system: RXF 393 renal
[54] = system: IGROV1 ovarian
[55] = system: SK-MEL-5 melanoma
[56] = system: SK-OV-3 ovarian
[57] = system: 786-0 renal
[58] = system: OVCAR-8 ovarian
[59] = system: MDA-N

## COc1cc2c(cc1-c1c(C)noc1C)cc(C)c(=O)n2Cc1ccccn1
[1]
  GI50: 2.78 µM
  TGI: > 100 µM
[2]
  GI50: 1.33 µM
  TGI: > 100 µM
[3]
  GI50: 3.13 µM
  TGI: > 100 µM
[4]
  GI50: 0.566 µM
  TGI: 22.2 µM
[5]
  GI50: 1.86 µM
  TGI: > 100 µM
[6]
  GI50: 2.46 µM
  TGI: > 100 µM
[7]
  GI50: 3.47 µM
  TGI: > 100 µM
[8]
  GI50: 2.91 µM
  TGI: > 100 µM
[9]
  GI50: 0.284 µM
  TGI: 23.2 µM
[10]
  GI50: 12.6 µM
  TGI: > 100 µM
[11]
  GI50: 1.25 µM
  TGI: 4.33 µM
[12]
  GI50: 0.407 µM
  TGI: 15 µM
[13]
  GI50: 2.3 µM
  TGI: > 100 µM
[14]
  GI50: 4.22 µM
  TGI: > 100 µM
[15]
  GI50: 0.709 µM
  TGI: > 100 µM
[16]
  GI50: 0.473 µM
  TGI: 25.3 µM
[17]
  GI50: 1.76 µM
  TGI: > 100 µM
[18]
  GI50: 0.318 µM
  TGI: 13.3 µM
[19]
  GI50: 2.18 µM
  TGI: > 100 µM
[20]
  GI50: 0.963 µM
  TGI: > 100 µM
[21]
  GI50: 1.8 µM
  TGI: 11.2 µM
[22]
  GI50: 1.91 µM
  TGI: > 100 µM
[23]
  GI50: 0.864 µM
  TGI: 5.12 µM
[24]
  GI50: 7.77 µM
  TGI: > 100 µM
[25]
  GI50: 3.89 µM
  TGI: > 100 µM
[26]
  GI50: 0.307 µM
  TGI: 3.86 µM
[27]
  GI50: 0.456 µM
  TGI: > 100 µM
[28]
  GI50: 0.797 µM
  TGI: > 100 µM
[29]
  GI50: 1.34 µM
  TGI: > 100 µM
[30]
  GI50: 1.45 µM
  TGI: > 100 µM
[31]
  GI50: 4.43 µM
  TGI: > 100 µM
[32]
  GI50: 0.333 µM
  TGI: > 100 µM
[33]
  GI50: 2.59 µM
  TGI: > 100 µM
[34]
  GI50: 0.809 µM
  TGI: > 100 µM
[35]
  GI50: 0.0306 µM
  TGI: 0.456 µM
[36]
  GI50: 0.34 µM
  TGI: 18.3 µM
[37]
  GI50: 1.79 µM
  TGI: 17.3 µM
[38]
  GI50: 3.4 µM
  TGI: > 100 µM
[39]
  GI50: 1.67 µM
  TGI: > 100 µM
[40]
  GI50: 0.884 µM
  TGI: 10.8 µM
[41]
  GI50: 0.376 µM
  TGI: > 100 µM
[42]
  GI50: 3.33 µM
  TGI: > 100 µM
[43]
  GI50: 1.57 µM
  TGI: > 100 µM
[44]
  GI50: 0.694 µM
  TGI: > 100 µM
[45]
  GI50: 0.983 µM
  TGI: 13.2 µM
[46]
  GI50: 6 µM
  TGI: > 100 µM
[47]
  GI50: 0.489 µM
  TGI: > 100 µM
[48]
  GI50: 0.301 µM
  TGI: 3.77 µM
[49]
  GI50: 1.59 µM
  TGI: > 100 µM
[50]
  GI50: 0.542 µM
  TGI: 10.9 µM
[51]
  GI50: 1.14 µM
  TGI: 7.45 µM
[52]
  GI50: 0.469 µM
  TGI: > 100 µM
[53]
  GI50: 0.498 µM
  TGI: 5 µM
[54]
  GI50: 1.2 µM
  TGI: > 100 µM
[55]
  GI50: 1.99 µM
  TGI: 10.7 µM
[56]
  GI50: 0.554 µM
  TGI: 7.82 µM

## CCOC(=O)c1c(-c2ccc(OC)cc2)c(C#N)c(=S)n(C2OC(COC(C)=O)C(OC(C)=O)C(OC(C)=O)C2OC(C)=O)c1C (configuration not stated)
[1]
  TGI: > 100 µM
[2]
  TGI: 92.2 µM
[3]
  TGI: > 100 µM
[4]
  TGI: > 100 µM
[5]
  TGI: > 100 µM
[7]
  TGI: > 100 µM
[8]
  TGI: > 100 µM
[9]
  TGI: > 100 µM
[10]
  TGI: > 100 µM
[11]
  TGI: > 100 µM
[12]
  TGI: > 100 µM
[13]
  TGI: > 100 µM
[14]
  TGI: > 100 µM
[15]
  TGI: > 100 µM
[16]
  TGI: 83.4 µM
[17]
  TGI: > 100 µM
[19]
  TGI: > 100 µM
[20]
  TGI: > 100 µM
[21]
  TGI: > 100 µM
[22]
  TGI: > 100 µM
[23]
  TGI: > 100 µM
[24]
  TGI: > 100 µM
[27]
  TGI: > 100 µM
[28]
  TGI: > 100 µM
[29]
  TGI: > 100 µM
[30]
  TGI: > 100 µM
[31]
  TGI: > 100 µM
[32]
  TGI: > 100 µM
[33]
  TGI: > 100 µM
[34]
  TGI: > 100 µM
[35]
  TGI: 91 µM
[57]
  TGI: > 100 µM
[58]
  TGI: > 100 µM
[36]
  TGI: > 100 µM
[37]
  TGI: > 100 µM
[38]
  TGI: > 100 µM
[39]
  TGI: > 100 µM
[40]
  TGI: > 100 µM
[41]
  TGI: 6.02 µM
[42]
  TGI: > 100 µM
[43]
  TGI: > 100 µM
[44]
  TGI: > 100 µM
[45]
  TGI: > 100 µM
[46]
  TGI: > 100 µM
[47]
  TGI: > 100 µM
[48]
  TGI: > 100 µM
[49]
  TGI: > 100 µM
[50]
  TGI: > 100 µM
[51]
  TGI: > 100 µM
[52]
  TGI: > 100 µM
[53]
  TGI: > 100 µM
[54]
  TGI: > 100 µM
[59]
  TGI: > 100 µM
[55]
  TGI: > 100 µM
[56]
  TGI: > 100 µM
